For data set [1], the target named is Adenosine receptor A2a (Homo sapiens) (UniProt P29274). Nature of the data set: Inhibition of Adenosine A2A at 10.0 µM in the Eurofins-Panlabs selectivity screen. To be noted: Compound concentration 10.0 uM.
The target of data set [2] is Alpha-2A adrenergic receptor (Homo sapiens) (UniProt P08913). Nature of the data set: Inhibition of Adrenergic alpha2A at 10.0 µM in the Eurofins-Panlabs selectivity screen. To be noted: Compound concentration 10.0 uM.
Data set [3] concerns the target Disintegrin and metalloproteinase domain-containing protein 8 (Homo sapiens, UniProt P78325). Briefly: IC50 of hADAM8 at 1.0 µM in the Bayer in-house protease panel.
The target of data set [4] is Sodium/potassium-transporting ATPase (Sus scrofa) (UniProt P05027+P05024+D2WKD8+D2WKD7+F1ST41). Briefly: Inhibition of ATPase, Na+/K+, Heart, Pig at 10.0 µM in the Eurofins-Panlabs selectivity screen. It counts as protein-complex assay. To be noted: Compound concentration 10.0 uM.
In data set [5] the target is Macrophage metalloelastase (Homo sapiens, UniProt P39900). Briefly: IC50 of hMMP12 at 1.0 µM in the Bayer in-house protease panel.
Another data set has as its target Cathepsin B (Homo sapiens, UniProt P07858). Briefly: IC50 of Cathepsin B at 1.0 µM in the Bayer in-house protease panel.
In data set [6] the target is Prostaglandin G/H synthase 2 (Homo sapiens) (UniProt P35354). Briefly: Inhibition of Cyclooxygenase COX-2 at 10.0 µM in the Eurofins-Panlabs selectivity screen. To be noted: Compound concentration 10.0 uM.
For data set [7], the target named is GABA transporter (Rattus norvegicus) (UniProt P31647+P23978+P31646+P48056). Briefly: Inhibition of Transporter, GABA at 10.0 µM in the Eurofins-Panlabs selectivity screen. It counts as protein assay. To be noted: Compound concentration 10.0 uM.
The target of data set [8] is Adenosine receptor A3 (Homo sapiens) (UniProt P0DMS8). Briefly: Inhibition of Adenosine A3 at 10.0 µM in the Eurofins-Panlabs selectivity screen. To be noted: Compound concentration 10.0 uM.
Data set [9] addresses 5-hydroxytryptamine receptor 2A (Homo sapiens) (UniProt P28223). Briefly: Inhibition of Serotonin (5-Hydroxytryptamine) 5-HT2A at 10.0 µM in the Eurofins-Panlabs selectivity screen. To be noted: Compound concentration 10.0 uM.
Data set [10] addresses Histamine H2 receptor (Homo sapiens) (UniProt P25021). Briefly: Inhibition of Histamine H2 at 10.0 µM in the Eurofins-Panlabs selectivity screen. To be noted: Compound concentration 10.0 uM.
Data set [11] addresses Monoamine oxidase A (MAO-A) (Homo sapiens, UniProt P21397). Nature of the data set: Inhibition of Monoamine Oxidase MAO-A at 10.0 µM in the Eurofins-Panlabs selectivity screen. To be noted: compound concentration 10 uM.
For data set [12], the target named is A disintegrin and metalloproteinase with thrombospondin motifs 7 (Homo sapiens, UniProt Q9UKP4). Briefly: Biochemical enzymatic FRET assay (hADAMTS7) ( FRET substrate, HiLyteFluor-488 DELSSMVLELRGLRT-K(QXL520)-E-NH2 (custom synthesis by Anaspec) was used.).
The target in data set [13] is Sodium-dependent dopamine transporter (Homo sapiens) (UniProt Q01959). Nature of the data set: Inhibition of Transporter, Dopamine (DAT) at 10.0 µM in the Eurofins-Panlabs selectivity screen. To be noted: Compound concentration 10.0 uM.
In data set [14] the target is D(2) dopamine receptor (Homo sapiens) (UniProt P14416). Nature of the data set: Inhibition of Dopamine D2L at 10.0 µM in the Eurofins-Panlabs selectivity screen. To be noted: Compound concentration 10.0 uM.
For data set [15], the target named is Prostaglandin G/H synthase 1 (Homo sapiens) (UniProt P23219). Nature of the data set: Inhibition of Cyclooxygenase COX-1 at 10.0 µM in the Eurofins-Panlabs selectivity screen. To be noted: Compound concentration 10.0 uM.
For data set [16], the target named is Androgen receptor (Homo sapiens) (UniProt P10275). Briefly: Inhibition of Androgen (Testosterone) at 10.0 µM in the Eurofins-Panlabs selectivity screen. To be noted: Compound concentration 10.0 uM.
Data set [17] concerns the target Cannabinoid receptor 2 (Homo sapiens) (UniProt P34972). Briefly: Inhibition of Cannabinoid CB2 at 10.0 µM in the Eurofins-Panlabs selectivity screen. To be noted: Compound concentration 10.0 uM.
The target in data set [18] is D(1A) dopamine receptor (Homo sapiens) (UniProt P21728). Nature of the data set: Inhibition of Dopamine D1 at 10.0 µM in the Eurofins-Panlabs selectivity screen. To be noted: Compound concentration 10.0 uM.

pIC50: −log10 of the molar value. Active and inactive are the calls of the source. No cut-off for these calls is given here. Some results are limits rather than exact numbers.

5-hydroxytryptamine receptor 2A (Homo sapiens), sequence (P28223 whole entry): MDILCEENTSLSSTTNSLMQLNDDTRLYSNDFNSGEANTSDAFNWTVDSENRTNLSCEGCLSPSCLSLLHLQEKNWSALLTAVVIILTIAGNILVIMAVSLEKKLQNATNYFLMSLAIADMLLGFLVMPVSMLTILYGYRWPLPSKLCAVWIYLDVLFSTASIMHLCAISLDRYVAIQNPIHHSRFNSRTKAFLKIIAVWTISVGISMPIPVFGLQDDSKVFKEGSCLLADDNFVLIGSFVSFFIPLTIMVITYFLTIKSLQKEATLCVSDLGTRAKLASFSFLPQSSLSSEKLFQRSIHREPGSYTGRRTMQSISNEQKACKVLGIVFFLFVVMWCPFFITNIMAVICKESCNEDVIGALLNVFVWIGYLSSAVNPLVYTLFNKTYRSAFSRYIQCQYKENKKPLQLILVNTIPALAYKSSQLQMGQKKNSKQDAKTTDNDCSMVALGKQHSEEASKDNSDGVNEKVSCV
Sodium-dependent dopamine transporter (Homo sapiens), sequence (Q01959 whole entry): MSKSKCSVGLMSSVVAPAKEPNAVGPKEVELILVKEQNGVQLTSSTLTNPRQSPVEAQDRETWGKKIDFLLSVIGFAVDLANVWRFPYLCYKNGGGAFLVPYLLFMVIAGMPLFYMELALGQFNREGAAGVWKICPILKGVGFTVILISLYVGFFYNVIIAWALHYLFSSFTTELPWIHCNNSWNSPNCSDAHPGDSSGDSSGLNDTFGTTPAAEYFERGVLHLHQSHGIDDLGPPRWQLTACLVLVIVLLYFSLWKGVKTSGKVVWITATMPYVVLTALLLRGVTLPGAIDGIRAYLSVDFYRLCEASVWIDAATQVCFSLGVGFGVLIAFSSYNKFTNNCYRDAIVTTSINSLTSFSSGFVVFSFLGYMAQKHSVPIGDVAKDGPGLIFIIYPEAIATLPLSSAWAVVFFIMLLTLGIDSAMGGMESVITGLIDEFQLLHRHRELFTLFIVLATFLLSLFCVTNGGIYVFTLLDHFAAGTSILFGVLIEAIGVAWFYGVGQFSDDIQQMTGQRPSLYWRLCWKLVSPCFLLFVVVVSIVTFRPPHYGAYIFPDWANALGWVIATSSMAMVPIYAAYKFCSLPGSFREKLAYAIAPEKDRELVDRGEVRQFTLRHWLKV
GABA transporter (Rattus norvegicus), sequence (P31646 whole entry, looked up): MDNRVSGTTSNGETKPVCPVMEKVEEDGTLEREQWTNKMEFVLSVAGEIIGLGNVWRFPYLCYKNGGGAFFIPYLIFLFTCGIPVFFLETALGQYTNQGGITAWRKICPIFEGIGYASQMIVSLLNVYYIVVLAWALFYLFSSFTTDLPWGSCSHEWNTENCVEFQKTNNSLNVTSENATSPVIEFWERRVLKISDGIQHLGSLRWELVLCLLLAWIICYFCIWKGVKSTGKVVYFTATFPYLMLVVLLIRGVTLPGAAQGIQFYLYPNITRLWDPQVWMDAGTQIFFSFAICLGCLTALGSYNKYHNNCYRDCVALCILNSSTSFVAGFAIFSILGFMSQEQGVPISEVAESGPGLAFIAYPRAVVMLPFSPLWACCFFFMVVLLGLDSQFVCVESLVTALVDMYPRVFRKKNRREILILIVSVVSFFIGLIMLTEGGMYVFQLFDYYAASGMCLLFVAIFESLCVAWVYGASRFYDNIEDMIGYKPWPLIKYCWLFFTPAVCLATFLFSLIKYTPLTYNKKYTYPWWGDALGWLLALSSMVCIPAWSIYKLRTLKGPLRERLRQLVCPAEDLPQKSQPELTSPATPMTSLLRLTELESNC
GABA transporter (Rattus norvegicus), sequence (P31647 whole entry, looked up): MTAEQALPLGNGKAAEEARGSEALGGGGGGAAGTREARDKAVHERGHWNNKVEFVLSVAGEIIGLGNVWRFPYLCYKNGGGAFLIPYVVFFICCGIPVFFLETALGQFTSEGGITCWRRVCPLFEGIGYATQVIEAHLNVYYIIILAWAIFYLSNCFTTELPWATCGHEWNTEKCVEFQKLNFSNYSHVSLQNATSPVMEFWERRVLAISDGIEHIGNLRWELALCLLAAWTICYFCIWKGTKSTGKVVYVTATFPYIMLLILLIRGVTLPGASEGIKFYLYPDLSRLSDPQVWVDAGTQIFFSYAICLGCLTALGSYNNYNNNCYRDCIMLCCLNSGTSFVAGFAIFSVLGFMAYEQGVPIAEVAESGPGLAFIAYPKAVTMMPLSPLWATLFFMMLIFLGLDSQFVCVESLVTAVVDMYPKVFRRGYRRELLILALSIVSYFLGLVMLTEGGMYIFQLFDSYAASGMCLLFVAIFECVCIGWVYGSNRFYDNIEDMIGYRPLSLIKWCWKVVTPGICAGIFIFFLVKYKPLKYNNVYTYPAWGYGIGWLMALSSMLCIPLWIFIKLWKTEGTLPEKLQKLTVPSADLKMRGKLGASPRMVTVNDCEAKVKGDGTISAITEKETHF
GABA transporter (Rattus norvegicus), sequence (P48056 whole entry, looked up): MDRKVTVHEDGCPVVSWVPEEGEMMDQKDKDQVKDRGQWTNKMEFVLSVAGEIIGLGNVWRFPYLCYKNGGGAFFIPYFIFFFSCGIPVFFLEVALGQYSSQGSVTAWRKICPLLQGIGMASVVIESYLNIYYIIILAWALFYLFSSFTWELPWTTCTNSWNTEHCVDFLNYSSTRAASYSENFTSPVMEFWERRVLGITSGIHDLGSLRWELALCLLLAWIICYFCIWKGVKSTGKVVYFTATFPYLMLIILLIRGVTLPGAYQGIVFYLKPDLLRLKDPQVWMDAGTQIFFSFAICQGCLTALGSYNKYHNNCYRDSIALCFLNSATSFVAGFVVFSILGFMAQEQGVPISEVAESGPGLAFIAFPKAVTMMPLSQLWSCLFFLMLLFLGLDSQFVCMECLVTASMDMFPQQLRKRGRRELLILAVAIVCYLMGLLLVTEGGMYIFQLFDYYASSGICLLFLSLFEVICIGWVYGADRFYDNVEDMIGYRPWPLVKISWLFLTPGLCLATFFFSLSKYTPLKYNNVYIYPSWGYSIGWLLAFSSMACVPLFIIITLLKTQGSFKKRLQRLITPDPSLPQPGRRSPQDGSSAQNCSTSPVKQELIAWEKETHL
Androgen receptor (Homo sapiens), sequence (P10275 whole entry): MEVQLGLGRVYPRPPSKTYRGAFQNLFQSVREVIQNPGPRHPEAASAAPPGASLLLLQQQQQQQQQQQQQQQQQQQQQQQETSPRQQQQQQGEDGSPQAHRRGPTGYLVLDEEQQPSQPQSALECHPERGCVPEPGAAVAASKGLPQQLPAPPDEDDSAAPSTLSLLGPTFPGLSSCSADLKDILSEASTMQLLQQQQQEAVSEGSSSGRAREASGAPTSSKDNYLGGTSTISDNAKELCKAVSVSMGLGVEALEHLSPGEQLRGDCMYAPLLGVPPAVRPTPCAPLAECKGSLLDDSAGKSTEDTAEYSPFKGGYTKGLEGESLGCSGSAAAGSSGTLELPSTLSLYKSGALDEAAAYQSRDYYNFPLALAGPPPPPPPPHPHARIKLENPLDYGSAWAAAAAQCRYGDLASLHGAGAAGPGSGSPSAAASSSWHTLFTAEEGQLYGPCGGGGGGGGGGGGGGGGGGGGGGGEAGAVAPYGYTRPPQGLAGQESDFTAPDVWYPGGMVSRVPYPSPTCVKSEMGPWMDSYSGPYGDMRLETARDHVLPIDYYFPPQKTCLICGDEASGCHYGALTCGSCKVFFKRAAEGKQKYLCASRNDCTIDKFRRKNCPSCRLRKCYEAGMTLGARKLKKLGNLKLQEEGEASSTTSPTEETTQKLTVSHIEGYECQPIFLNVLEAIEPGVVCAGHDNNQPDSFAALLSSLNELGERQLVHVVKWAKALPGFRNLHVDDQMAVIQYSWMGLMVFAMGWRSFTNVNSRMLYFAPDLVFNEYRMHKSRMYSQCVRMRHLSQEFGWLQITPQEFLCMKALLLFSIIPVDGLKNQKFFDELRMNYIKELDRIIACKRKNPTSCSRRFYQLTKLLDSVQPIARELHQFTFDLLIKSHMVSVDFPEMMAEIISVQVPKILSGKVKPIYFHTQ
D(1A) dopamine receptor (Homo sapiens), sequence (P21728 whole entry): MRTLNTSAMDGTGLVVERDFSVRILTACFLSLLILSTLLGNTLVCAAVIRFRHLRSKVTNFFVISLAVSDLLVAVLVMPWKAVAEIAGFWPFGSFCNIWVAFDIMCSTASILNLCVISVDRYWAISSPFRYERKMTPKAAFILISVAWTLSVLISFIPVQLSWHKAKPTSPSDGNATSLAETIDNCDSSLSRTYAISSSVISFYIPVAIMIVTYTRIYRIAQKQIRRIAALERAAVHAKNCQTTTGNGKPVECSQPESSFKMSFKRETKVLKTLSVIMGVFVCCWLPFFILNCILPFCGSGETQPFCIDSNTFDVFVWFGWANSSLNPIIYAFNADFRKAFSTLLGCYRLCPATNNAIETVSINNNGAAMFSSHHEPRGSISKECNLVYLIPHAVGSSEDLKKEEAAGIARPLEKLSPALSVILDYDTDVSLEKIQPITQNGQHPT

In the case of `Cn1nccc1[C@]1(CNC(=O)c2ccc(F)c(F)c2-c2ccc(C(F)(F)F)cc2)NC(=O)NC1=O`, the inhibition (usually the change of the read-out against control, counted positive when it falls) was 3% in data set [1]; -3% in data set [2]; -5% in data set [4]; 11% in data set [6]; 7% in [7]; 0% in data set [8]. In addition, the inhibition in data set [9] was -7%; in data set [10], 16%; in data set [13] it was 7%; in data set [14] it was 2%; in [15], -5%; in data set [16], 3%. In addition, the inhibition in [17] and in [18] was -1% each time. Besides, the pIC50 – broadly, −log10 of the IC50, conventionally taken in molar units – in [3] is 5.65; in data set [5] it was 5.27; on Cathepsin B it was less than 4.00. Also, the inhibition at 10 µM in data set [11] is 0%. Besides, the IC50 (in general, the midpoint of a concentration-inhibition curve) in [12] is 0.006 µM (active).

The values are drawn from ChEMBL document CHEMBL5723583, “Data for DCP probe BAY-9835” (2024).
